The values that follow come from ChEMBL document CHEMBL1201862, “PubChem BioAssay data set” (2004).

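Assay format: 96-well plates, 48-hour exposure. Here, GI50 denotes the concentration required for 50% inhibition of growth.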 Active and inactive are the calls of the source. Cut-off read from the data, not from the text of the source: active = GI50 up to about 1.1 µM and inactive = higher. A value given as a limit tells only on which side of the number the result lay.

Some test systems named below: Malme-3M; SNB-75; A549; KM12; HCT-15; LOX IMVI; A498; HOP-92; CAKI-1; Hs-578T; COLO 205; UACC-62; MDA-MB-231; SF-295; SR; SK-MEL-2; RPMI-8226; 786-0; MCF7; OVCAR-3.
What all share (assay): DTP human tumour cell line panel, 48 h

Consider `CCCCCCC(=O)OC[n+]1ccc2c(C)c3[nH]c4ccc(OC)cc4c3c(C)c2c1`, for which the GI50 (as a rule, the concentration giving 50% growth inhibition) is 1010 nM (active) in the experiment on Malme-3M; 1130 nM (inactive) in the experiment on SNB-75; 238 nM (active) in the experiment with A549; 186 nM (active) in the experiment with KM12; 117 nM in the experiment with HCT-15; 217 nM (active) in the experiment on LOX IMVI. The GI50 with A498 is 863 nM (active); with HOP-92, 1180 nM (inactive); in the experiment with CAKI-1 it was 865 nM (active); in the experiment with Hs-578T, 1320 nM (inactive); in the experiment with COLO 205 it was 207 nM (active); with UACC-62, 953 nM (active). In addition, the GI50 with MDA-MB-231 is 269 nM (active); with SF-295, 277 nM (active); with SR, 48.6 nM (active); in the experiment with SK-MEL-2, 1330 nM (inactive); in the experiment with RPMI-8226 it was 54.8 nM (active); in the experiment on 786-0, 70.8 nM (active). Besides, the GI50 in the experiment with MCF7 is 214 nM (active); in the experiment with OVCAR-3, 1570 nM (inactive).

As for `CCOC(=O)NN(C(=O)OCC)C(=C(c1ccccc1)N1CCOCC1)N(NC(=O)OCC)C(=O)OCC`, the GI50 with Malme-3M is > 100000 nM (inactive); in the experiment with SNB-75, 44000 nM (inactive); with A549 it was > 100000 nM (inactive); in the experiment on KM12, > 100000 nM (inactive); in the experiment with HCT-15, more than 100000 nM; in the experiment with LOX IMVI, > 100000 nM (inactive). In addition, the GI50 with A498, in the experiment with HOP-92, in the experiment on CAKI-1, in the experiment with Hs-578T, in the experiment with COLO 205 and in the experiment with UACC-62 was > 100000 nM (inactive) each time. Besides, the GI50 in the experiment with MDA-MB-231, with SF-295, in the experiment on SR, in the experiment with SK-MEL-2, with RPMI-8226 and in the experiment with 786-0 was > 100000 nM (inactive) each time. The GI50 in the experiment with MCF7 and in the experiment with OVCAR-3 was > 100000 nM (inactive) in each case.

On to `CNc1cc2c(c3ccccc13)C(CCl)CN2C(=O)c1cc2cc(OC)c(OC)c(OC)c2[nH]1` (stereo not given), for which the GI50 was < 10 nM (active) with Malme-3M; 2.52 nM (active) in the experiment with SNB-75; 1.53 nM (active) with A549; 3.8 nM (active) in the experiment on KM12; 1.37 nM with HCT-15; 1.06 nM (active) in the experiment with LOX IMVI. For the same molecule, the GI50 was 2.61 nM (active) in the experiment on A498; 4.84 nM (active) in the experiment with HOP-92; 0.703 nM (active) with CAKI-1; 8.02 nM (active) in the experiment on Hs-578T; 2.27 nM (active) in the experiment on COLO 205; 0.588 nM (active) with UACC-62. Besides, the GI50 was 7.4 nM (active) in the experiment with MDA-MB-231; 1.55 nM (active) in the experiment with SF-295; 0.275 nM (active) with SR; 7.85 nM (active) with SK-MEL-2; 4.55 nM (active) with RPMI-8226; 0.809 nM (active) in the experiment with 786-0. Also, the GI50 with MCF7 is 0.822 nM (active); in the experiment on OVCAR-3, 22.6 nM (active).

As for `CSc1ncc2c(C#N)c3ccccn3c(=O)c2n1`, the GI50 with Malme-3M is > 100000 nM (inactive); in the experiment with SNB-75, > 100000 nM (inactive); in the experiment with A549, > 100000 nM (inactive); in the experiment on KM12, > 100000 nM (inactive); in the experiment on HCT-15, more than 100000 nM; in the experiment with LOX IMVI, > 100000 nM (inactive). For the same molecule, the GI50 in the experiment on A498, with HOP-92, in the experiment with CAKI-1, in the experiment with Hs-578T, in the experiment with COLO 205 and with UACC-62 was > 100000 nM (inactive) throughout. Moreover, the GI50 in the experiment on MDA-MB-231, with SF-295, in the experiment with SR, in the experiment on SK-MEL-2, in the experiment on RPMI-8226 and with 786-0 was > 100000 nM (inactive) in each case. Besides, the GI50 in the experiment with MCF7 and with OVCAR-3 was > 100000 nM (inactive) throughout.

For `COc1cc(C2c3[nH]c4ccccc4c3[C@@H](Nc3ccc(C#N)cc3)[C@H]3COC(=O)N23)cc(OC)c1O` (stereo not given in full), the GI50 is 279 nM (active) in the experiment on Malme-3M; 227 nM (active) in the experiment on SNB-75; 113 nM (active) in the experiment on A549; 243 nM (active) with KM12; 1070 nM in the experiment on HCT-15; 96.2 nM (active) in the experiment on LOX IMVI. For the same molecule, the GI50 in the experiment on A498 is 51.6 nM (active); in the experiment with HOP-92, 413 nM (active); in the experiment with CAKI-1, 213 nM (active); with Hs-578T, 265 nM (active); in the experiment on COLO 205, 644 nM (active); with UACC-62 it was 114 nM (active). For the same molecule, the GI50 in the experiment on MDA-MB-231 was 372 nM (active); with SF-295 it was 164 nM (active); in the experiment on SR it was 11.3 nM (active); in the experiment with SK-MEL-2, 356 nM (active); in the experiment with RPMI-8226 it was 144 nM (active); in the experiment with 786-0, 90.8 nM (active). The GI50 is 160 nM (active) in the experiment on MCF7 and 441 nM (active) with OVCAR-3.

As for `Clc1ccc(COc2ccccc2/C=N/c2c(-c3ccco3)nc3ccccn23)c(Cl)c1`, the GI50 in the experiment on Malme-3M is 36500 nM (inactive); in the experiment with SNB-75, 23400 nM (inactive); in the experiment on A549, > 100000 nM (inactive); with KM12 it was 36800 nM (inactive); in the experiment with HCT-15, 23300 nM; with LOX IMVI, 17100 nM (inactive). For the same molecule, the GI50 is > 100000 nM (inactive) with A498; 13000 nM (inactive) in the experiment on HOP-92; 32500 nM (inactive) with CAKI-1; 36900 nM (inactive) in the experiment on Hs-578T; 38900 nM (inactive) in the experiment with COLO 205; 33300 nM (inactive) with UACC-62. Also, the GI50 in the experiment on MDA-MB-231 was 20200 nM (inactive); with SF-295, 39900 nM (inactive); in the experiment on SR, 10200 nM (inactive); with SK-MEL-2, 20200 nM (inactive); in the experiment on RPMI-8226 it was 29900 nM (inactive); in the experiment with 786-0, 28200 nM (inactive). Also, the figures for the GI50 in the experiment on MCF7 and with OVCAR-3 were 12500 nM (inactive) and 37800 nM (inactive), respectively.

On to `O=C1c2cccnc2-c2nccc3c2c1nc1ccc(Br)cc13`, for which the GI50 was 102 nM (active) in the experiment on Malme-3M; 129 nM (active) with SNB-75; 188 nM (active) with A549; 65.6 nM (active) in the experiment with KM12; 45 nM in the experiment with HCT-15; 22.1 nM (active) in the experiment on LOX IMVI. Further, the GI50 in the experiment with A498 is 85.3 nM (active); in the experiment with HOP-92, 102 nM (active); in the experiment with CAKI-1 it was 53.6 nM (active); with Hs-578T it was 120 nM (active); in the experiment on COLO 205, 438 nM (active); with UACC-62, 56.9 nM (active). The GI50 was < 20.1 nM (active) in the experiment on MDA-MB-231; 40.1 nM (active) in the experiment with SF-295; 12 nM (active) in the experiment on SR; 72.6 nM (active) in the experiment on SK-MEL-2; 34.7 nM (active) in the experiment with RPMI-8226; 24.8 nM (active) in the experiment on 786-0. In addition, the 50% growth inhibitory concentration (GI50) in the experiment with MCF7 is < 16.2 nM (active); with OVCAR-3, 20.7 nM (active).
